Data on 18 molecules can be found in patent US9969742B2, “Imidazotriazinone compounds” (Ironwood Pharmaceuticals, Inc., priority 2012, dated 2018).

Read-outs that look alike come from different tables or passages of the source.

What is called IC50 is the concentration that gives 50% inhibition.

Common to all, as to assay type: biochemical
For one test, the target named is T1, PDE1B (Homo sapiens, UniProt Q01064).
T1 construct: purchased Reaction Biology Corporation, Malvern, Pa
Put plainly: Phosphodiesterase enzyme screening assay, PDE1B. The method, boiled down:
(§1)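 Recombinant enzymes were run in 100 mM HEPES pH 7.5, 5 mM MgCl2, 1 mM DTT, 0.003% Brij with 4.0 μM cGMP substrate, started with cGMP or cAMP, 1 h at RT, and stopped with EDTA. Fluorescent substrate and product were separated by microfluidic mobility shift.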

Another test deals with T2, PDE9A2 (Homo sapiens, UniProt O76083).
T2 construct: purchased Reaction Biology Corporation, Malvern, Pa
Put plainly: Phosphodiesterase enzyme screening assay, PDE9A2. The method, boiled down:
as §1

The target of a further test is T3, PDE1A (Homo sapiens, UniProt P54750).
T3 construct: purchased Reaction Biology Corporation, Malvern, Pa
Nature of the test: Phosphodiesterase enzyme screening assay, PDE1A. The method, boiled down: as §1

The mark [1] stands for this setting: Table 1, ratio of IC50 values, value greater than 1 indicates greater selectivity for PDE9A2.
Setting [2] is: Table 1, 10 concentrations, 4.0 μM cGMP substrate, 1 hour at R.T., read-out: Band (PDE9A2 IC50).
The mark [3] stands for this setting: ratio of IC50 values PDE1B / PDE9A2, value greater than 1 = greater selectivity for PDE9A2.
[4] abbreviates: 4.0 μM cGMP substrate, 1 hour at R.T., read-out: Band (PDE9A2 IC50).
Where [5] appears, read: ratio of IC50 values PDE1A / PDE9A2, value greater than 1 = greater selectivity for PDE9A2.
Setting [6] is: ratio of IC50 values, value greater than 1 indicates greater selectivity for PDE9A2.
Where [7] appears, read: ratio of IC50 values, PDE1B versus PDE9A2, value greater than 1 indicates greater selectivity for PDE9A2.
Where [8] appears, read: ratio of IC50 values, PDE1A versus PDE9A2, value greater than 1 indicates greater selectivity for PDE9A2.
The mark [9] stands for this setting: Table 2, ratio of IC50 values, value greater than 1 indicates greater selectivity for PDE9A2.
Setting [10] is: Table 2, 10 concentrations, 4.0 μM cGMP substrate, 1 hour at R.T., read-out: Band (PDE9A2 IC50).
[11] abbreviates: ratio of IC50 values PDE1B vs PDE9A2, value greater than 1 indicates greater selectivity for PDE9A2.
Setting [12] is: IC50 band, 4.0 μM cGMP substrate, 1 hour at R.T.
The mark [13] stands for this setting: ratio of IC50 values PDE1A vs PDE9A2, value greater than 1 indicates greater selectivity for PDE9A2.

T3 sequence (P54750 whole entry): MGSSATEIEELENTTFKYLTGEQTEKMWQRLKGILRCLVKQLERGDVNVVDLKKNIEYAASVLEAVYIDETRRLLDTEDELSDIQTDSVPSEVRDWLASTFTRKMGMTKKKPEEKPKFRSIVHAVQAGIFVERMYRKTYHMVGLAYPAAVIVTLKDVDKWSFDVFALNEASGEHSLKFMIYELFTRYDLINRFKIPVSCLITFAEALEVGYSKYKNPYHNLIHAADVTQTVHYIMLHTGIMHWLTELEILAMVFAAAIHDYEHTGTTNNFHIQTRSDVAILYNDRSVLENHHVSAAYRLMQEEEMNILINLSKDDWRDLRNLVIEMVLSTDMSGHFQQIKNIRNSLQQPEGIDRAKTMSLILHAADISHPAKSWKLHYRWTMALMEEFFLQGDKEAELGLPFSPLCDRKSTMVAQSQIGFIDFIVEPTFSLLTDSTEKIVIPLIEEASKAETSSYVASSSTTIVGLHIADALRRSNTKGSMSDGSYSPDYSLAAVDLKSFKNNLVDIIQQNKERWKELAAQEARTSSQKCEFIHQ
T2 sequence (O76083 1-533 isoform O76083-2): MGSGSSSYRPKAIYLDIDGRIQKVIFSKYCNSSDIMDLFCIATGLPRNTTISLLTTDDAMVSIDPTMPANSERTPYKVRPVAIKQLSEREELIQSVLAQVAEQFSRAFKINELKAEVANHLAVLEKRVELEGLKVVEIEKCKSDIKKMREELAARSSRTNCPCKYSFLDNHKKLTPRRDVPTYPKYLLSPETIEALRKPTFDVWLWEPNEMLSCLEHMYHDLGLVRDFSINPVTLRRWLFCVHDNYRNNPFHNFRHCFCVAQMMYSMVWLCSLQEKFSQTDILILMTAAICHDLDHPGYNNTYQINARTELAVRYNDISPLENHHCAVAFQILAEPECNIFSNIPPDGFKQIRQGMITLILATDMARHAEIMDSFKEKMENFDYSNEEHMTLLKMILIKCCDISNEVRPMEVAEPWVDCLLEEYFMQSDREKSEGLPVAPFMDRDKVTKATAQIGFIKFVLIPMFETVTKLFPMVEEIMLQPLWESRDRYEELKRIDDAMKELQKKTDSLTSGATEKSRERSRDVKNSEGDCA
T1 sequence (Q01064 whole entry): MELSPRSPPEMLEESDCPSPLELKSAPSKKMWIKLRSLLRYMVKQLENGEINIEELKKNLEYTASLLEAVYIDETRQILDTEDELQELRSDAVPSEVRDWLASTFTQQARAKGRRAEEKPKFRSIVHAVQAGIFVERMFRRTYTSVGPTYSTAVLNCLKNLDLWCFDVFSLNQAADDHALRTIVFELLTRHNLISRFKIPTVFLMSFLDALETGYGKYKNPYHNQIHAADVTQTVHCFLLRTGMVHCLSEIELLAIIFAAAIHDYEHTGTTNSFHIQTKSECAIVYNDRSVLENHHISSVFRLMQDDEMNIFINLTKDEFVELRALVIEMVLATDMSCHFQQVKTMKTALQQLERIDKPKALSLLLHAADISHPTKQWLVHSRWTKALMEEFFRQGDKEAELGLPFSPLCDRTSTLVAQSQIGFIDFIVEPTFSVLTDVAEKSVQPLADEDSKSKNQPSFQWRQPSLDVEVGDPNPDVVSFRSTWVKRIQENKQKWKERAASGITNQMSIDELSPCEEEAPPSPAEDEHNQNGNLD

As to `CC1CN(Cc2cccc(OC(F)(F)F)c2)CC1c1nn2c(C3CCOCC3)ncc2c(=O)[nH]1` (single isomer, unassigned; (+)) [(+)-2-((3,4-trans)-4-methyl-1-(3-(trifluoromethoxy)benzyl)pyrrolidin-3-yl)-7-(tetrahydro-2H-pyran-4-yl)imidazo[5,1-f][1,2,4]triazin-4(3H)-one], the “PDE1B selectivity (versus PDE9A2)” value on PDE1B (setting [1]) came out at 99. Further, the half-inhibitory concentration (IC50) on PDE9A2 (setting [2]) was below 1000 nM. Moreover, the “PDE1A selectivity (versus PDE9A2)” value on PDE1A (setting [1]) was determined as 261.

`CC1CN(Cc2ccccc2OC(F)(F)F)CC1c1nn2c(C3CCOCC3)ncc2c(=O)[nH]1` (single isomer, unassigned; (+)) [(+)-2-((3,4-trans)-4-methyl-1-(2-(trifluoromethoxy)benzyl)pyrrolidin-3-yl)-7-(tetrahydro-2H-pyran-4-yl)imidazo[5,1-f][1,2,4]triazin-4(3H)-one]: the “PDE1B selectivity (versus PDE9A2)” value on PDE1B (setting [3]) is on record as 24. Moreover, the IC50 at PDE9A2 (setting [4]) is below 1000 nM. Besides, the “PDE1A selectivity (versus PDE9A2)” value on PDE1A (setting [5]) worked out at 173.

In the case of `CC1CN(CC2CCN(C(=O)OC(C)(C)C)CC2)CC1c1nn2c(C3CCOCC3)ncc2c(=O)[nH]1` (single isomer, unassigned; (-)) [(−)-tert-butyl (−)-4-(((3,4-trans)-3-methyl-4-(4-oxo-7-(tetrahydro-2H-pyran-4-yl)-3,4-dihydroimidazo[5,1-f][1,2,4]triazin-2-yl)pyrrolidin-1-yl)methyl)piperidine-1-carboxylate], the “PDE1B selectivity (versus PDE9A2)” value on PDE1B (setting [6]) is recorded as 262. The half-inhibitory concentration (IC50) at PDE9A2 (read-out: Band (PDE9A2 IC50)) is below 1000 nM. The “PDE1A selectivity (versus PDE9A2)” value on PDE1A (setting [6]) came to 129.

Take `CC1CN(Cc2ccccc2C2CC2)CC1c1nn2c(C3CCOCC3)ncc2c(=O)[nH]1` (single isomer, unassigned; (-)) [(−)-2-((3,4-trans)-1-(2-cyclopropylbenzyl)-4-methylpyrrolidin-3-yl)-7-(tetrahydro-2H-pyran-4-yl)imidazo[5,1-f][1,2,4]triazin-4(3H)-one]: at PDE1B (setting [1]), the “PDE1B selectivity (versus PDE9A2)” value worked out at 505. Further, on PDE9A2 (setting [2]), the concentration for half-maximal inhibition (IC50) was below 1000 nM. The “PDE1A selectivity (versus PDE9A2)” value at PDE1A (setting [1]) is on record as 685.

Regarding `Cc1cccc(CN2CC(C)C(c3nn4c(C5CCOCC5)ncc4c(=O)[nH]3)C2)n1` (single isomer, unassigned; (+)) [(+)-2-((3,4-trans)-4-methyl-1-((6-methylpyridin-2-yl)methyl)pyrrolidin-3-yl)-7-(tetrahydro-2H-pyran-4-yl)imidazo[5,1-f][1,2,4]triazin-4(3H)-one], the “PDE1B selectivity (versus PDE9A2)” value on PDE1B (setting [3]) was 1005. Besides, at PDE9A2 (setting [4]), the IC50 was below 1000 nM. Also, the “PDE1A selectivity (versus PDE9A2)” value on PDE1A (setting [5]) was found to be 780.

Regarding `CC1CN(Cc2ncccn2)CC1c1nn2c(C3CCCC3)ncc2c(=O)[nH]1` (single isomer, unassigned; (+)) [(+)-7-cyclopentyl-2-((3,4-trans)-4-methyl-1-(pyrimidin-2-ylmethyl)pyrrolidin-3-yl)imidazo[5,1-f][1,2,4]triazin-4(3H)-one], at PDE1B (setting [7]), the “PDE1B selectivity (versus PDE9A2)” value is on record as 45. In addition, the 50% inhibitory concentration (IC50) on PDE9A2 (read-out: Band (PDE9A2 IC50)) is below 1000 nM. Further, at PDE1A (setting [8]), the “PDE1A selectivity (versus PDE9A2)” value turned out to be 60.

Turning to `Cc1nc(CN2CC(C)C(c3nn4c(C5CCOCC5)ncc4c(=O)[nH]3)C2)cs1` (single isomer, unassigned; (+)) [(+)-2-((3,4-trans)-4-methyl-1-((2-methylthiazol-4-yl)methyl)pyrrolidin-3-yl)-7-(tetrahydro-2H-pyran-4-yl)imidazo[5,1-f][1,2,4]triazin-4(3H)-one], on PDE1B (setting [6]), the “PDE1B selectivity (versus PDE9A2)” value came out at 19. In addition, at PDE9A2 (read-out: Band (PDE9A2 IC50)), the IC50 is below 1000 nM. For the same molecule, at PDE1A (setting [6]), the “PDE1A selectivity (versus PDE9A2)” value was found to be 12.

Regarding `CC1CN(Cc2nccc(C(F)(F)F)n2)CC1c1nn2c(C3CCOCC3)ncc2c(=O)[nH]1` (single isomer, unassigned; (+)) [(+)-2-((3,4-trans)-4-methyl-1-((4-(trifluoromethyl)pyrimidin-2-yl)methyl)pyrrolidin-3-yl)-7-(tetrahydro-2H-pyran-4-yl)imidazo[5,1-f][1,2,4]triazin-4(3H)-one], the “PDE1B selectivity (versus PDE9A2)” value on PDE1B (setting [9]) was 566. In addition, the IC50 on PDE9A2 (setting [10]) was below 1000 nM. In addition, the “PDE1A selectivity (versus PDE9A2)” value on PDE1A (setting [9]) amounted to 585.

Regarding `CC1CN(Cc2ccc(Cl)c(F)c2)CC1c1nn2c(C3CCOCC3)ncc2c(=O)[nH]1` (single isomer, unassigned; (+)) [(+)-2-((3,4-trans)-1-(4-chloro-3-fluorobenzyl)-4-methylpyrrolidin-3-yl)-7-(tetrahydro-2H-pyran-4-yl)imidazo[5,1-f][1,2,4]triazin-4(3H)-one], the “PDE1B selectivity (versus PDE9A2)” value on PDE1B (setting [1]) is 6575. Besides, on PDE9A2 (setting [2]), the IC50 is below 1000 nM. The “PDE1A selectivity (versus PDE9A2)” value at PDE1A (setting [1]) worked out at 3575.

With `CC1CN(Cc2cccnc2)CC1c1nn2c(-c3cccc(F)c3)ncc2c(=O)[nH]1` (single isomer, unassigned; (+)) [(+)-7-(3-fluorophenyl)-2-((3,4-trans)-4-methyl-1-(pyridin-3-ylmethyl)pyrrolidin-3-yl)imidazo[5,1-f][1,2,4]triazin-4(3H)-one], the “PDE1B selectivity (versus PDE9A2)” value on PDE1B (setting [7]) is listed as 37. At PDE9A2 (read-out: Band (PDE9A2 IC50)), the IC50 was below 1000 nM. Besides, the “PDE1A selectivity (versus PDE9A2)” value on PDE1A (setting [8]) worked out at 15.

Turning to `CC1CN(Cc2nc3ccccc3[nH]2)CC1c1nn2c(C3CCC(F)(F)CC3)ncc2c(=O)[nH]1` (single isomer, unassigned; (+)) [(+)-2-((3,4-trans)-1-((1H-benzo[d]imidazol-2-yl)methyl)-4-methylpyrrolidin-3-yl)-7-(4,4-difluorocyclohexyl)imidazo[5,1-f][1,2,4]triazin-4(3H)-one], the “PDE1B selectivity (versus PDE9A2)” value on PDE1B (setting [11]) is on record as 250. The molecule also returned an IC50 at PDE9A2 (setting [12]) below 1000 nM. Besides, at PDE1A (setting [13]), the “PDE1A selectivity (versus PDE9A2)” value is on record as 90.

In the case of `CC1CN(Cc2ccnc3ccccc23)CC1c1nn2c(C3CCOCC3)ncc2c(=O)[nH]1` (single isomer, unassigned; (+)) [(+)-2-((3,4-trans)-4-methyl-1-(quinolin-4-ylmethyl)pyrrolidin-3-yl)-7-(tetrahydro-2H-pyran-4-yl)imidazo[5,1-f][1,2,4]triazin-4(3H)-one], the “PDE1B selectivity (versus PDE9A2)” value at PDE1B (setting [1]) amounted to 987. Also, the IC50 on PDE9A2 (setting [2]) is below 1000 nM. Also, on PDE1A (setting [1]), the “PDE1A selectivity (versus PDE9A2)” value stood at 471.

For `CC1CN(Cc2ncc3ccccc3n2)CC1c1nn2c(C3CCOCC3)ncc2c(=O)[nH]1` (single isomer, unassigned; (-)) [(−)-2-((3,4-trans)-4-methyl-1-(quinazolin-2-ylmethyl)pyrroli] [(−)-2-((3,4-trans)-4-methyl-1-(quinazolin-2-ylmethyl)pyrrolidin-3-yl)-7-(tetrahydro-2H-pyran-4-yl)imidazo[5,1-f][1,2,4]triazin-4(3H)-one], the “PDE1B selectivity (versus PDE9A2)” value at PDE1B (setting [1]) stood at 2000. Also, at PDE9A2 (setting [2]), the IC50 was below 1000 nM. The “PDE1A selectivity (versus PDE9A2)” value at PDE1A (setting [1]) worked out at 1213.

In the case of `CC1CN(Cc2ccccc2)CC1c1nn2c(-c3ccccc3)ncc2c(=O)[nH]1` (single isomer, unassigned; (+)) [(+)-2-((3,4-trans)-1-benzyl-4-methylpyrrolidin-3-yl)-7-phenylimidazo[5,1-f][1,2,4]triazin-4(3H)-one], the “PDE1B selectivity (versus PDE9A2)” value at PDE1B (setting [7]) came out at 12. For the same molecule, the IC50 at PDE9A2 (read-out: Band (PDE9A2 IC50)) is below 1000 nM. In addition, on PDE1A (setting [8]), the “PDE1A selectivity (versus PDE9A2)” value is given as 4.

Regarding `Cc1ccncc1-c1ncc2c(=O)[nH]c(C3CN(Cc4ncccn4)CC3C)nn12` (single isomer, unassigned; (+)) [(+)-2-((3,4-trans)-4-methyl-1-(pyrimidin-2-ylmethyl)pyrrolidin-3-yl)-7-(4-methylpyridin-3-yl)imidazo[5,1-f][1,2,4]triazin-4(3H)-one], the “PDE1B selectivity (versus PDE9A2)” value at PDE1B (setting [7]) is reported as 127. Further, the IC50 at PDE9A2 (read-out: Band (PDE9A2 IC50)) is below 1000 nM. In addition, the “PDE1A selectivity (versus PDE9A2)” value at PDE1A (setting [8]) was 85.

As to `CC1CN(Cc2ncc(C3CC3)cn2)CC1c1nn2c(C3CCOCC3)ncc2c(=O)[nH]1` (single isomer, unassigned; (+)) [(+)-2-((3,4-trans)-1-((5-cyclopropylpyrimidin-2-yl)methyl)-4-methylpyrrolidin-3-yl)-7-(tetrahydro-2H-pyran-4-yl)imidazo[5,1-f][1,2,4]triazin-4(3H)-one], at PDE1B (setting [9]), the “PDE1B selectivity (versus PDE9A2)” value was 670. Besides, the half-maximal inhibitory concentration (IC50) on PDE9A2 (setting [10]) is below 1000 nM. In addition, at PDE1A (setting [9]), the “PDE1A selectivity (versus PDE9A2)” value was determined as 151.

Consider `CC1CN(Cc2cn3ncccc3n2)CC1c1nn2c(C3CCOCC3)ncc2c(=O)[nH]1` (single isomer, unassigned; (-)) [(−)-2-((3,4-trans)-1-(imidazo[1,2-b]pyridazin-2-ylmethyl)-4-methylpyrrolidin-3-yl)-7-(tetrahydro-2H-pyran-4-yl)imidazo[5,1-f][1,2,4]triazin-4(3H)-one], for which the “PDE1B selectivity (versus PDE9A2)” value at PDE1B (setting [1]) worked out at 12. Further, the half-maximal inhibitory concentration (IC50) at PDE9A2 (setting [2]) is below 1000 nM. Besides, the “PDE1A selectivity (versus PDE9A2)” value on PDE1A (setting [1]) is recorded as 8.

As to `Cc1ccc(F)cc1-c1ncc2c(=O)[nH]c(C3CN(Cc4cccnc4)CC3C)nn12` (single isomer, unassigned; (+)) [(+)-7-(5-fluoro-2-methylphenyl)-2-((3,4-trans)-4-methyl-1-(pyridin-3-ylmethyl)pyrrolidin-3-yl)imidazo[5,1-f][1,2,4]triazin-4(3H)-one], the “PDE1B selectivity (versus PDE9A2)” value on PDE1B (setting [11]) came out at 505. Also, the half-maximal inhibitory concentration (IC50) at PDE9A2 (setting [12]) was below 1000 nM. Moreover, the “PDE1A selectivity (versus PDE9A2)” value at PDE1A (setting [13]) amounted to 770.
